According to patent publication US20220213156A1, “Peptides for use in therapy or prophylaxis of Herpesviridae-infections” (priority 2019, published 2022):
Like-named read-outs stand apart in the source and are kept apart here. Residues, ends and D or L forms follow the SMILES beside them.

Key:
zebrafish embryos = format: in vivo; conditions: exposure from 6-7 hpf
Description: To test HD5 (1-9) (SEQ ID No. 1) for toxicity and to assess its effect on embryonic development in zebrafish, embryos obtained from natural crosses of wildtype TE fish were used. After mating, embryos were incubated at 28° C. until 6 h postfertilization (hpf). Triplicates of five embryos each were then placed in wells of a 96-well plate containing 200 μl of different peptide concentrations. HD5 (1-9) (SEQ ID No. 1) dissolved in PBS was diluted in normal embryo medium (250 mg/L Instant Ocean salt, 1 mg/L methylene blue in reverse osmosis water adjusted to pH 7 with NaHCO3) (Muller et al., “Differential diffusivity of Nodal and Lefty underlies a reaction-diffusion patterning system”; Science 336 (6082):721-724, 2012). The concentrations tested were 25 μM, 75 μM, 125 μM and 250 μM, and the concentration of PBS solvent was adjusted for each control group. At peptide concentrations of 75 μM and above we observed granulae in some wells, which could represent peptide accumulations. As a control, embryos were additionally incubated in 25 μg/ml cycloheximide (C4859, Sigma-Aldrich). After 13 hpf, 24 hpf and 48 hpf a microscopic phenotype analysis was performed. For each time point embryos were automatically imaged using an ACQUIFER Imaging Machine. For the phenotype analysis at 48 hpf, the larvae were manually dechorionated and anaesthetized with 2% tricaine methane-sulfonate (A5040-25G, Sigma-Aldrich). Images were acquired on an Axio Zoom.V16 microscope (ZEISS).
As a first test of HD5 (1-9) (SEQ ID No. 1) toxicity in vivo, as well as to elucidate potential effects of the peptide on embryonic development, experiments with zebrafish embryos were performed (He et al., 2014). Embryos were treated with HD5 (1-9) (SEQ ID No. 1) at concentrations of 25 μM, 75 μM, 125 μM and 250 μM starting at 6-7 h post fertilization (hpf), which is the time point recommended by pharmaceutical company-utilized assays to assess toxic effects of compounds on early embryonic development (Ball et al., 2014). Phenotypes were analyzed at 13.24 and 48 hpf (data not shown). […] Impaired development at 250 μM peptide exposure was also evident over the whole observation period, leading to the death of 11 embryos and 4 embryos having severe developmental delays by 48 hpf.

clinical HCMV isolates = test: Infection assays with clinical isolates on HFF; format: cell-based, Human Cytomegalovirus
Description: The antiviral activity of HD5 (1-9) (SEQ ID No. 1) in concentrations from 1.56 μM to 100 μM against infection with clinical HCMV isolates was investigated on HFF. In addition to the laboratory-adapted strain TB40/E-ΔUL16-eGFP, which served as reference strain, a breast milk-derived strain, an amniotic fluid-isolated strain and a multidrug-resistant viral isolate from leukocytes of a recipient after the third stem cell transplantation were used. The therapy-naïve strain from cell free milk whey (H1241-2016) was derived from a […] of a preterm infant 10 weeks postpartum during end of viral reactivation. The amnion fluid derived virus strain (H2497-2011) was isolated following termination of pregnancy based on severe fetal brain damage. The multidrug resistant CMV isolate (H815-2006) is already described (Gohring et al., “Dynamics of coexisting HCMV-UL97 and UL54 drug-resistance associated mutations in patients after haematopoietic cell transplantation”, J. Clin. Virol. 57(1):43-49, 2013). […] All viral isolates were primarily HFF-adapted and propagated in vitro with at least 10 passages to get TCID values of cell free viral supernatants of […].
Next, a peptide of the invention, i.e. HD5 (1-9) was tested on clinical HCMV isolates. 10 000 HFF were seeded into each well of a 96-well-plate containing 200 μl of medium. Cells were incubated overnight at 37° C. and 5% CO2. Next day medium was changed to medium without P/S. Cells were infected with different clinical HCMV isolates (MOI 0,2) and treated with peptide in concentrations from 1.56 μM to 100 μM in a volume of 100 μl. After 40 h of incubation cells were fixed with 2% PFA in PBS and permeabilised with 90% methanol in H2O. Afterwards an antibody staining for IE-antigens was performed and nuclei were stained with DAPI. Infection rate was analysed (IE+/DAPI+, normalized to medium control, n=1).
HCMV TB40/E is a lab-adapted strain that might differ from primary HCMV isolates in terms of cellular tropism, infectivity or cytopathic properties. […]

SMILES: C[C@H](N)C(=O)N[C@H](C(=O)N[C@@H](CS)C(=O)N[C@@H](Cc1ccc(O)cc1)C(=O)N[C@@H](CS)C(=O)N[C@@H](CCCNC(=N)N)C(=O)N[C@H](C(=O)NCC(=O)N[C@@H](CCCNC(=N)N)C(=O)O)[C@@H](C)O)[C@@H](C)O [HD5 (1-9), ATCYCRTGR] (H-ATCYCRTGR-OH; N-terminus and C-terminus assumed)
- embryonic development (zebrafish embryos; 25 μM or 75 μM): developed normally
- embryonic development (zebrafish embryos; 125 μM): approximately half of the embryos having no alterations
- death of embryos by 48 hpf (zebrafish embryos; 250 μM): 11 embryos
- embryo death by 13 hpf (zebrafish embryos; 250 μM): half of the embryos had died
- embryos having severe developmental delays by 48 hpf (zebrafish embryos; 250 μM): 4 embryos
- inhibition of HCMV infection (clinical HCMV isolates; 100 μM in HFF, MOI 0.2 and 0.1): inhibited HCMV infection efficiently
- concentration at which inhibition of infection with all clinical isolates starts (clinical HCMV isolates; HFF, 40 h): ≥ 50 µM
- inhibition of infection with primary isolates (amniotic fluid, breast milk, multiresistant leukocyte isolate) (clinical HCMV isolates; HFF, MOI 0.2 and 0.1): sensitive towards inhibition
